According to patent US12655141B2, “Inhibitors of notch signaling pathway and use thereof in treatment of cancers” (Cellestia Biotech AG, priority 2019, dated 2026):

What was measured:
[1] = tested on: NOTCH positive/driven human T cell acute lymphoblastic leukemia cell line RPMI 8402; assay: PrestoBlue anti-proliferative assay; assay type: cell-based; conditions: for IC50: Homo sapiens, RPMI 8402, RPMI8402, 72 hours, concentration range 0.03-100 μM; for fold change compared to 6-(4-tert-butylphenoxy)pyridin-3-amine (anti-proliferative IC50): RPMI8402, 72 hours
Description: (§1) Alamarblue® and PrestoBlue proliferation assays were performed to determine the growth kinetics of Notch inhibitor treated cells. Alamar Blue® and PrestoBlue consists of a cell permeable substrate resazurin. In metabolically active and proliferating cells, resazurin is converted to resorufin due to an intrinsic reducing power of live cells and produces a red fluorescence. Therefore production of resorufin serves as an indicator of the viability of the cell population.
Proliferation assays were performed by seeding 5000 cells/well in a 96 well plate. […] Each concentration was tested in 4 replicates. To determine the growth kinetics, 10 μl of Alamar Blue® or PrestoBlue (Invitrogen) was added to each well and incubated for 4 hours. Readout was taken using Tecan F500 (Tecan) multiplate reader or Varioskan LUX (ThermoFisher) multiplate reader.
(§2) In order to determine anti-cancer potency of compounds compared to 6-(4-tert-butylphenoxy)pyridin-3-amine (described in WO2013/093885), NOTCH positive/driven human T cell acute lymphoblastic leukemia cell line RPMI 8402 was treated with selected compounds.

[2] = tested on: NOTCH positive/driven human T cell acute lymphoblastic leukemia cell line RPMI 8402; assay: Alamar blue anti-proliferative assay; assay type: cell-based; conditions: for IC50: Homo sapiens, RPMI 8402, RPMI8402, 72 hours, concentration range 0.01-10 μM
Description: as §1
Proliferation assays were performed by seeding 5000 cells/well in a 96 well plate. Cells were treated with DMSO or compounds for 72 hours using concentration ranges of 0.01-10 μM. Each concentration was tested in 4 replicates. To determine the growth kinetics, 10 μl of Alamar Blue® or PrestoBlue (Invitrogen) was added to each well and incubated for 4 hours. Readout was taken using Tecan F500 (Tecan) multiplate reader or Varioskan LUX (ThermoFisher) multiplate reader.
as §2

[3] = tested on: N1-ICD (cleaved and active NOTCH1 Intracellular Domain); assay: Jess western blot of RPMI8402 protein lysates: N1-ICD; assay type: cell-based, human; conditions: RPMI8402, 1 μM, 24 hours, 37° C
Description: (§3) One million human NOTCH positive T-ALL cell line RPMI8402 were treated with NOTCH targeting compounds at 1 μM concentration for 24 hours. Following treatment cells were harvested and washed with 1×PBS. Total RNA and total protein lysates were extracted as described below.
(§4) Cells were lysed in RIPA buffer (50 mM Tris·Cl, pH 7.5, 150 mM NaCl, 1% nonidet P-40, 0.5% sodium deoxycholate and 0.1% SDS) for 30 minutes at 4° C. Lysed cells were centrifuged to remove the debris at 14000 rpm at 4° C. Supernatant was transferred to a new eppendorf tube. The protein concentration was determined by Bradford assay using spectrophotometer (Ultrospec 3000 pro).
(§5) Later on western blotting was carried out using Jess (ProteinSimple, biotechne). Samples containing 0.8 μg protein was denatured in loading buffer containing DTT by heating at 95° C. for 5 minutes. Samples were run on 12-230 kDa gel matrix, with incubation time for primary and secondary antibodies of 1 hour and 30 minutes, respectively. Data were analysed using Compass for SW (ProteinSimple, biotechne) software.
(§6) Total protein lysates were analysed by Jess western blot analysis using N1-ICD (cleaved and active NOTCH1 Intracellular Domain), cMYC and GAPDH specific antibodies.

cMYC [4] = assay: Jess western blot of RPMI8402 protein lysates: cMYC; assay type: cell-based, human; conditions: RPMI8402, 1 μM, 24 hours, 37° C
Description: as §3, §4, §5, §6

cMYC [5] = assay: Western blot of RPMI8402 protein lysates: cMYC; assay type: cell-based, human; conditions: NOTCH positive leukemic cells, 1 μM, 24 hours, FIGS. 2 and 3
Description: as §3, §4
(§7) Initially for western blotting, 40 μg of protein were denatured in 1×SDS gel loading buffer (100 mM Tris·Cl, pH 6.8, 200 mM DTT, 4% SDS, 0.2% bromophenol, 20% glycerol) by heating at 99° C. for 5 minutes. Denatured protein samples were stored on ice until loading on to the acrylamide gel. The samples were run on 8% or 10% acrylamide gel in Tris-glycine electrophoresis buffer (25 mM Tris, 250 mM glycine, 0.1% SDS). Following separation on the acrylamide gel, protein samples were transferred on to PVDF membrane (PEQ lab, catalog number 39-3010) using transfer buffer (39 mM glycine, 48 mM Tris base, 0.037% SDS and 20% methanol).
(§8) For immunoblotting, membranes were blocked with 5% milk and incubated overnight with primary antibodies at 4° C. Membrane were washed with 1×TBST (1×TBS+0.5 tween 20) for 5 minutes (3 times) and incubated with HRP-conjugated secondary antibodies for one hour at room temperature. Signal was detected with Super Signal West chemiluminescent substrate (Thermo Scientific, catalog number 34077).
(§9) Total protein lysates were analysed by western blot analysis using N1-ICD (cleaved and active NOTCH1 Intracellular Domain), cMYC and ACTIN specific antibodies.

[6] = tested on: N1-ICD (cleaved and active NOTCH1 Intracellular Domain); assay: Western blot of RPMI8402 protein lysates: N1-ICD; assay type: cell-based, human; conditions: NOTCH positive leukemic cells, 1 μM, 24 hours, FIGS. 2 and 3
Description: as §3, §4, §7, §8, §9

NOTCH pathway = assay: Western blot, downregulation of NOTCH pathway (N1-ICD and cMYC), FIG. 2 and 3; assay type: cell-based, human; conditions: RPMI8402, 1 μM, 24 hours
Description: NOTCH positive human leukemic RPMI8402 cells were treated with 1 μM of 6-(4-tert-butylphenoxy)pyridin-3-amine and 6-([1,1′-Biphenyl]-4-yloxy)-N-methylpyridin-3-amine for 24 hours. Following treatment, total protein lysates were extracted and protein expression analysed by western blot.
NOTCH positive human leukemic RPMI8402 cells were treated with 1 μM of 6-(4-tert-butylphenoxy)pyridin-3-amine and 6-((4′-Fluoro-[1,1′-biphenyl]-4-yl)oxy)pyridin-3-amine, 6-([1,1′-Biphenyl]-4-yloxy)-4-methylpyridin-3-amine, 6-([1,1′-Biphenyl]-4-yloxy)-2-methylpyridin-3-amine and N-Methyl-6-((6-phenylpyridin-3-yl)oxy)pyridin-3-amine for 24 hours. Following treatment, total protein lysates were extracted and protein expression analysed by western blot.
as §3, §4, §7, §8

Compound	IC50 [1] [nM]	fold change compared to 6-(4-tert-butylphenoxy)pyridin-3-amine (anti-proliferative IC50) [1]	IC50 [2] [nM]	fold change compared to 6-(4-tert-butylphenoxy)pyridin-3-amine (anti-proliferative IC50) ([2]; RPMI8402, 72 hours)	Percentage improvement of compounds over 6-(4-tert-Butylphenoxy)pyridin-3-amine to downregulate NOTCH target genes (protein expression): N1-ICD [3] [%]	Percentage improvement of compounds over 6-(4-tert-Butylphenoxy)pyridin-3-amine to downregulate NOTCH target genes (protein expression): cMYC (cMYC [4]) [%]	downregulation of cMYC compared to 6-(4-tert-butylphenoxy)pyridin-3-amine (cMYC [5])	downregulation of N1-ICD compared to 6-(4-tert-butylphenoxy)pyridin-3-amine [6]	potency in downregulating NOTCH pathway compared with 6-(4-tert-butylphenoxy)pyridin-3-amine (NOTCH pathway)
CC(C)(C)c1ccc(Oc2ccc(N)cn2)cc1 [6-(4-tert-butylphenoxy)pyridin-3-amine, reference compound]	740	(1X) x	740	(1X) x	100	100			
CNc1ccc(Oc2ccc(-c3ccccc3)cc2)nc1 [Example 2, 6-([1,1′-Biphenyl]-4-yloxy)-N-methylpyridin-3-amine]			110				stronger downregulation	stronger downregulation	enhanced potency
CNc1ccc(Oc2ccc(-c3ccccc3)cc2)c(F)c1 [Example 6, 4-([1,1′-Biphenyl]-4-yloxy)-3-fluoro-N-methylaniline]			700						
Nc1ccc(Oc2ccc(-c3ccccc3)cc2)cc1 [Example 7, 4-([1,1′-Biphenyl]-4-yloxy)aniline]			170						
Cc1nc(Oc2ccc(-c3ccccc3)cc2)ccc1N [Example 8, 6-([1,1′-Biphenyl]-4-yloxy)-2-methylpyridin-3-amine]			110				stronger downregulation	stronger downregulation	enhanced potency
Cc1cc(Oc2ccc(-c3ccccc3)cc2)ncc1N [Example 9, 6-([1,1′-Biphenyl]-4-yloxy)-4-methylpyridin-3-amine]			110				stronger downregulation	stronger downregulation	enhanced potency
Nc1ccc(Oc2ccc(-c3ccc(F)cc3)cc2)nc1 [Example 10, 6-((4′-Fluoro-[1,1′-biphenyl]-4-yl)oxy)pyridin-3-amine]			83				stronger downregulation	stronger downregulation	enhanced potency
Nc1ccc(OCCc2cc(Oc3ccc(N)cn3)ccc2-c2ccccc2)cc1 [Example 22, 6-((2-(2-(4-Aminophenoxy)ethyl)-[1,1′-biphenyl]-4-yl)oxy)pyridin-3-amine]			920						
CNc1ccc(Oc2ccc(-c3ccccc3)nc2)nc1 [Example 23, N-Methyl-6-((6-phenylpyridin-3-yl)oxy)pyridin-3-amine]			500				stronger downregulation	stronger downregulation	enhanced potency
Cc1nc(Oc2ccc(-c3nccs3)cc2)ccc1N [Example 35, 2-Methyl-6-(4-(thiazol-2-yl)phenoxy)pyridin-3-amine]	< 30	(>24x)			132	130			
